For data set [1], the system named is MCF-7 tumors. Briefly: MCF-7 xenograft tumor volume study. The data set is classed as in vivo, mice.
The nature of data set [2]: GDC-0941 plasma pharmacokinetics in mice.
Data set [3] deals with MCF-7 tumors. Conditions: for peak apoptosis, tumor cells (TUNEL): in combination with fulv.
In data set [4] the test system is MCF-7 cells. Briefly: Sulforhodamine B. The data set is classed as cell-based, human.
A further data set can be described thus: in vivo. The note with it: NOD-scid/IL2Rγ−/− (NSG; NOD.Cg-Prkdcscid Il2rgtm1Wjl/SzJ), mouse, plasma, po, 800 mg/kg.
The subject of data set [5] is MCF-7 cells. Briefly: Caspase-3/7-activatable luciferase reporter in MCF-7 cells. The data set is classed as cell-based, human. Conditions: 1 µM fulv for 2 d before 1 µM GDC-0941 for 12, 24 or 36 h, combination. A general note: A reporter such as luciferase makes a cellular process visible.
A short description of data set [6]: GDC-0941 intratumor pharmacokinetics in mice bearing MCF-7 xenografts. Conditions: for time of peak intratumor concentration: fulv pretreatment. Type of data set: in vivo.
Another data set relates to ZR75-1 cells. As to the kind of experiment: Caspase-3/7-activatable luciferase reporter in ZR75-1 cells. The note with it: 1 µM fulv for 2 d before 1 µM GDC-0941 for 12 or 24 h, combination. The data set is classed as cell-based, human.
Data set [7] has as its system HCI-003 patient-derived breast cancer xenografts. As to the kind of experiment: HCI-003 patient-derived xenograft tumor volume study. Conditions: fulv alone; HCI-003 xenografts. The data set is classed as in vivo, mice. (Xenograft models place foreign cells or tissue in a host animal.)
In data set [8] the test system is chronic eosinophilic leukemia. Conditions: weekly dosing; cited from earlier work.
Setting [9] is: low-dose (100 mg/kg), single dose.

Read-outs that look alike come from different tables or passages of the source.

Consider `CS(=O)(=O)N1CCN(Cc2cc3nc(-c4cccc5[nH]ncc45)nc(N4CCOCC4)c3s2)CC1` [GDC-0941], for which the tumor response result in the data set with MCF-7 tumors [1] (combination of fulv and GDC-0941, regardless of dose/schedule, MCF-7 tumors) is “near-complete tumor regression in most cases”. Further, the body weight result in the data set on MCF-7 tumors [1] (single-agent GDC-0941, different doses/schedules) was “without notable loss of body weight”. Also, the tumor growth result in the data set on MCF-7 tumors [1] (single-agent GDC-0941, different doses/schedules, MCF-7 tumors 500–1,000 mm^3) is “only slowed tumor growth”. Further, in data set [2] (100 mg/kg), the “time until plasma concentration below the limit of detection” value was not above 24 h. Also, the “plasma concentration in plateau phase” value was in the range of 6.8 to 10.7 µM in data set [2] (100 mg/kg, plateau after 1 h, maintained for 8 h) and 7.9 to 15 µM in [2] (800 mg/kg, plateau maintained through 24 h). Moreover, in data set [2] (800 mg/kg), the “time until plasma concentration below detectable limits” value is not above 72 h. The “maintained apoptosis (TUNEL)” value in the data set with MCF-7 tumors [3] (fulv plus bi-daily low-dose GDC-0941 (3 d on, 4 d off), until 72 h) is listed as ~ 10%. For the same compound, the “apoptosis (TUNEL)” value with MCF-7 tumors [3] (fulv plus daily low-dose GDC-0941, maintained for 72 h) is 8–10%. The “peak apoptosis, tumor cells (TUNEL)” value is on record as 6.7% with MCF-7 tumors [3] (one low dose (100 mg/kg) GDC-0941, at 24 h); 30.1% in the data set on MCF-7 tumors [3] (single high-dose (800 mg/kg) GDC-0941, at 48 h); 15.9% with MCF-7 tumors [3] (two low doses (100 mg/kg at 0 and 12 h) GDC-0941, at 24 h). In the data set with MCF-7 cells [4] (MCF-7 cells, GDC-0941 ≤0.25 µM), the “duration of exposure required to appreciably decrease viability” value is given as not below 24 h. In addition, the growth inhibition entry in the data set with MCF-7 cells [4] (MCF-7 cells, continuous exposure to 1–2 µM GDC-0941) is “near-complete growth inhibition”. In the data set “in vivo”, the Tmax – broadly, the time at which the peak concentration occurs – was in the range of 15 to 30 min. The caspase-3/7 reporter activity entry in the data set on MCF-7 cells [5] and in the data set with ZR75-1 cells was “increased caspase-3/7 reporter activity compared to either agent alone” each time. The “time until intratumor concentration below the detectable limit” value in data set [6] (high-dose (800 mg/kg)) is listed as not above 72 h. In addition, the “time of peak intratumor concentration” value in data set [6] (high-dose (800 mg/kg)) worked out at 9 h; in [6] (setting [9]), 9 h; in data set [6] (two low-dose treatments (100 mg/kg at 0 and 12 h)), 21 h. For the same compound, the “time at which drug was undetectable in tumor” value was determined as 36 h in data set [6] (low-dose (100 mg/kg) with a second dose at 12 h) and 18 h in data set [6] (setting [9]).

`C[C@]12CC[C@@H]3c4ccc(O)cc4C[C@@H](CCCCCCCCC[S+]([O-])CCCC(F)(F)C(F)(F)F)[C@H]3[C@@H]1CC[C@@H]2O` (stereo partly drawn) [fulv]: the tumor response entry in the data set with MCF-7 tumors [1] (fulv alone, larger MCF-7 tumors (500–1,000 mm^3)) is on record as “generally unresponsive”. The tumor growth entry in [7] is on record as “did not affect tumor growth”. Further, the “growth of MCF-7 cells” value in the data set with MCF-7 cells [4] (single-agent fulv (1 µM)) is recorded as “effectively inhibited growth”.

Regarding `Cc1ccc(NC(=O)c2ccc(CN3CCN(C)CC3)cc2)cc1Nc1nccc(-c2cccnc2)n1` [imatinib], in [8], the “patients in whom recurrence was prevented” value is 7/7.

The values above are taken from paper PMC4854767 (Clinical cancer research : an official journal of the …, 2016).
